According to patent US12473536B2, “Cultured meat product with genetically modified cells” (Trustees of Tufts College, priority 2019, dated 2025):
“And” between values parts separate entries of the source, which are not always exact repeats. Equal values may be shown once.

What was measured:
a range of cell types = conditions: cited from earlier work
C2C12s = test: Eight-day cell growth by dsDNA quantitation, C2C12s; type: cell-based, mouse; conditions: for Growth of engineered cells: over eight days, vs cells engineered with pGFP or pCrtB
Description: (§1) Growth and development of engineered cells—Growth of engineered BSCs and C2C12s was analyzed using a dsDNA quantitation kit (ThermoFisher #F2962) on days 1, 2, 4, 6, and 8 of culture. Cells were plated in 96-well plates for each time-point at a density of 1000 cells/well. At each time-point, media was removed from wells and plates were frozen at −80° C. After all time-points were frozen, plates were thawed to room temperature, and 100 uL of UltraPure water (ThermoFisher #10977023) was added to wells. Plates were incubated at 37° C. for one hour, re-frozen to −80° C., and re-thawed to room temperature. Wells were stained with 100 uL of Hoechst 33258 working solution. Fluorescence was measured with a Synergy H1 microplate reader (BioTek Instruments, Winooski, VT, USA) using excitation and emission filters centered at 360 and 460 nm, respectively. In parallel, a 96-well plate was seeded with a range of known cell densities, incubated for 12 hours, and measured using the same protocol to obtain a standard curve and convert fluorescence values to cell number. […]
(§2) Carotenoid optimization—Two methods were explored for optimizing carotenoid production in pCrtB/I/Y cells. […] To determine an appropriate puromycin concentration for increasing enzyme expression, engineered cells were cultured in media containing 2.5 μg/mL puromycin (1× puro), 5 μg/mL puromycin (2× puro) or 10 μg/mL puromycin (4× puro), and relative GFP expression was determined via flow cytometry as a proximate measure of enzyme expression. Briefly, cells were cultured, harvested, and GFP was analyzed using a BD FACSCalibur (BD Sciences) or Attune N×T (ThermoFisher) flow cytometer. Appropriate gating was performed using pGFP and unmodified cells as positive and negative controls, and mean fluorescent intensity was determined. Data were analyzed with the FlowJo software (v10). […]

BSCs [1] = test: Eight-day cell growth by dsDNA quantitation, BSCs; type: cell-based, bovine; conditions: 5 μg/mL, pCrtB/I/Y BSCs, 8-day growth
Description: as §1
Carotenoid optimization—Two methods were explored for optimizing carotenoid production in pCrtB/I/Y cells. […] Briefly, cells were cultured, harvested, and GFP was analyzed using a BD FACSCalibur (BD Sciences) or Attune N×T (ThermoFisher) flow cytometer. […] Data were analyzed with the FlowJo software (v10). […]

[2] = test system: primary bovine satellite cells (BSCs); test: Carotenoid quantification by quantitative HPLC in engineered BSCs; type: cell-based; conditions: for Effect of ketoconazole and puromycin conditioning on β-carotene: pCrtB/I/Y BSCs
[3] = test system: C2C12 mouse skeletal myoblasts; test: Carotenoid quantification by quantitative HPLC in engineered C2C12s; type: cell-based; conditions: pCrtB/I/Y C2C12s
[4] = test system: bovine satellite cells (BSCs); test: Adipogenic transdifferentiation of BSCs with free fatty acids (Oil Red O staining); type: cell-based; conditions: 100 uM to 150 uM
Source text: This adipogenic transdifferentiation protocol will be further optimized through a fractional factorial experimental design, testing various concentrations oleic, myristoleic, linoleic, erucic, and elaidic acid. Lipid accumulation will be verified qualitatively with Oil Red O staining and quantified with the AdipoRed plate reader assay (Lonza). Transdifferentiation of satellite cells into mature adipocytes will enable muscle and fat components of cultured meat to be generated from a single cell source throughout this proposal, thus increasing project efficiency and impact.

pCrtB/I/Y C2C12s = test: GFP expression by flow cytometry under puromycin selection, C2C12s; type: cell-based, mouse; conditions: 4× concentration (10 μg/mL)
Source text: as §2, with “cells. The first focused on increasing gene expression by increasing puromycin selective pressure. The second focused on increasing levels of the carotenoid pathway precursor farnesyl pyrophosphate (FPP) by inhibiting downstream reactions in one of FPP's alternative metabolic pathways—cholesterol synthesis—using the small molecule ketoconazole (Sun et al., 2007). By exploring these two approaches, the possibility for a single approach to fail to address a rate-limiting step in carotenoid production was reduced.” for “cells.”

pCrtB/I/Y BSCs [5] = test: GFP expression by flow cytometry under puromycin selection, BSCs; type: cell-based, bovine
Source text: as §2, with “cells. The first focused on increasing gene expression by increasing puromycin selective pressure. The second focused on increasing levels of the carotenoid pathway precursor farnesyl pyrophosphate (FPP) by inhibiting downstream reactions in one of FPP's alternative metabolic pathways—cholesterol synthesis—using the small molecule ketoconazole (Sun et al., 2007). By exploring these two approaches, the possibility for a single approach to fail to address a rate-limiting step in carotenoid production was reduced.” for “cells.”

BSCs [6] = test: Four-day growth of BSCs in serum-free B8 media and FGF-2 dilutions; type: cell-based, bovine; conditions: four days, within B8 media
Description: Briefly, B8 media will be comprised of DMEM:F12 (1:1) supplemented with L-ascorbic acid 2-phosphate (200 ug/mL), insulin (20 ug/mL), transferrin (20 ug/mL), sodium selenite (20 ng/mL), FGF-2 (10 ng/mL), neuregulin 1 (NRG-1; 0.1 ng/mL), TGFβ-3 ([…]), and insulin-like growth factor 1 (IGF-1; 10 ng/mL). Formulations absent one or more growth factors will simultaneously generated, as will formulations lacking all growth factors but containing previously reported serum-replacements made from rapeseed peptide fractions, maitake mushroom extract, and silk-derived sericin proteins.

engineered BSCs = test: Thiobarbituric acid reactive substances (TBARS) lipid oxidation assay, raw or heated cells; type: cell-based, bovine
Description: Lipid oxidation—To analyze the antioxidant functionality of carotenoids in cells, a thiobarbituric acid reactive substances (TBARS) assay was performed. This assay measures malondialdehyde (MDA), a byproduct of unsaturated fatty acid oxidation, and so serves as a measure of lipid oxidation in cells. As lipid oxidation is often catalyzed by the processes that generate oxidative pressure, such as cooking of meat, the TBARS assay was performed on both “raw” cells, and cells that had been heated to mimic cooking. Briefly, engineered BSCs were cultured as previously described, harvested, and counted. 1.5 million cells were aliquoted to tubes for heated or unheated analysis, washed 1× in PBS, pelleted, and the supernatant PBS was removed. Collected cell pellets were stored overnight at 4° C. The next day, samples designated for heating were incubated for 10 minutes in a 100° C. heat block, cooled to room temperature, and placed on ice. All cells (heated and unheated) were suspended in 500 μL of PBS, incubated for 2 hours on ice, and sonicated on ice using a probe sonicator (Branson, St. Louis, MO, USA) at 15% intensity for 5×15 second pulses, with 20 second intervals between pulses. Next, the TBARS assay (Cayman Chemical #700870, Ann Arbor, MI, USA) was performed with 100 μL of sonicated cell lysates, following the manufacturers protocol and determining MDA by measuring absorbance at 535 nm compared to a standard curve of known MDA concentrations. The remainders of the cell lysates were frozen at −80° C. until protein quantification was performed via Bradford assay (ThermoFisher #23200) following the manufacturers protocol. Briefly, 5 μL of cell lysates were incubated for 10 minutes with 250 uL of Coomassie reagent, and the absorbance was measured at 595 nm and compared to a BSA standard curve. TBARS measurements were normalized with protein content for each sample in order to obtain corrected cellular MDA (mg/g protein).

pCrtB/I/Y BSCs [7] = test: Pax7 and MHC immunostaining of engineered BSCs before and after differentiation; type: cell-based, bovine
Description: Immunofluorescence and cell characterization—To confirm the identity of isolated primary BSCs, cells were stained for Pax7 and Myosin Heavy Chain (MHC) before and after differentiation, respectively. These markers confirm the primary and terminal states of satellite cell myogenesis and therefore act to verify the nature and myogenicity of isolated cells. Proliferative cells and cells after one week of differentiation were fixed with 4% paraformaldehyde (ThermoFisher #AAJ61899AK) for 30 minutes, washed in PBS, permeabilized for 15 minutes using 0.5% Triton X (Sigma #T8787) in PBS, blocked for 45 minutes using 5% goat serum (ThermoFisher #16210064) in PBS with 0.05% sodium azide (Sigma #S2002), and washed with PBS containing 0.1% Tween-20 (Sigma #P1379). […]
Growth and development of engineered cells—Growth of engineered BSCs and C2C12s was analyzed using a dsDNA quantitation kit (ThermoFisher #F2962) on days 1, 2, 4, 6, and 8 of culture. […] Fluorescence was measured with a Synergy H1 microplate reader (BioTek Instruments, Winooski, VT, USA) using excitation and emission filters centered at 360 and 460 nm, respectively. In parallel, a 96-well plate was seeded with a range of known cell densities, incubated for 12 hours, and measured using the same protocol to obtain a standard curve and convert fluorescence values to cell number. […]

pepsin = conditions: cited from earlier work
[8] = increasing levels of selection antibiotic
[9] = heated samples (10 minutes, 100° C.)

C=C(C)[C@@H]1CCC(C)=C[C@H]1c1c(O)cc(CCCCC)cc1O [cannabidiol]
Treatment range explored without mention of excess cell death (a range of cell types): 1-50 uM and 0.313-15.65 ug/mL

CC(=O)N1CCN(c2ccc(OCC3COC(Cn4ccnc4)(c4ccc(Cl)cc4Cl)O3)cc2)CC1 (stereo not drawn) [ketoconazole]
Effect on growth (C2C12s; 5 μg/mL, pCrtB/I/Y C2C12s, 8-day growth): not significantly effect growth
Effect on growth (BSCs [1]): not significantly effect growth
Effect of ketoconazole and puromycin conditioning on β-carotene [2]: additive increase in β-carotene
Effect of ketoconazole and puromycin together on β-carotene [3]: do not significantly increase β-carotene

CCCCC/C=C\C/C=C\CCCCCCCC(=O)O [linoleic acid]
Lipid accumulation (Oil Red O) [4]: Sparse lipid accumulation

COc1ccc(C[C@H](N)C(=O)N[C@H]2[C@@H](O)[C@H](n3cnc4c(N(C)C)ncnc43)O[C@@H]2CO)cc1 [puromycin]
Increase in carotenoid levels [2, 8]: ~3 fold
Effect of ketoconazole and puromycin conditioning on β-carotene [2]: additive increase in β-carotene
Effect on GFP expression (pCrtB/I/Y C2C12s): significant increase in GFP expression
Effect on GFP expression (pCrtB/I/Y BSCs [5]; 4× concentration (10 μg/mL), BSCs): significant increase in GFP expression
Increase in gene expression (as shown by GFP expression) (pCrtB/I/Y BSCs [5]; [8]): two-fold
Effect of ketoconazole and puromycin together on β-carotene [3]: do not significantly increase β-carotene

FGF-2: fibroblast growth-factor 2
FGF-2 concentration showing significantly improved growth vs FGF-2-free B8 media (BSCs [6]): greater than or equal to 1.25 ng/mL

pSBbi-(CMV-CrtB-T2A-)-pur [pCrtB]
Cellular MDA (lipid oxidation) (engineered BSCs; [9]): 3.6 mg/g protein
Cellular MDA (lipid oxidation) (engineered BSCs; unheated samples): 1.7 mg/g protein

pSBbi-(CMV-CrtB-T2A-CrtI-P2A-GFP)-pur [pCrtB/I]
Cellular MDA (lipid oxidation) (engineered BSCs; [9]): 1.7 mg/g protein
Cellular MDA (lipid oxidation) (engineered BSCs; unheated samples): 1.0 mg/g protein
Growth of engineered cells (C2C12s): higher growth over eight days

pSBbi-(CMV-CrtY-T2A-CrtB-T2A-CrtI-P2A-GFP)-pur [pCrtB/I/Y]
Cellular MDA (lipid oxidation) (engineered BSCs; [9]): 2.3 mg/g protein
Cellular MDA (lipid oxidation) (engineered BSCs; unheated samples): 1.1 mg/g protein
Growth of engineered cells (C2C12s): higher growth over eight days
Myogenic potential (Pax7 and MHC staining) (pCrtB/I/Y BSCs [7]): maintenance of Pax7 expression and MHC-positive myotube formation

B1: V565: anti-TNFα nanobody V565 (SEQ ID NO:7) (protein)
VHH: DVQLVESGGGLVQPGGSLKLSCAASGFDFSSHWMYWVRQAPGKELEWLSEINTNGLITHYGDSVKGRFTVSRNNAANKMYLELTRLEPEDTALYYCARNQHGLNKGQGTQVTVSS
Sensitivity to pepsin (pepsin): sensitive to pepsin
Stability in the gastric environment (pepsin): largely stable in the gastric environment
